We go through two compounds from patent US20090099020A1, “Triazole-Based Fungicidal Mixtures” (BADF Aktiengesellschaft, priority 2005, published 2009).

The subject of the assay is Botrytis cinerea. Kind of assay: Activity against the gray mold pathogen Botrytis cinerea in the microtiter test (Botrci). Format: cell-based. The conditions noted are these: single active, day 7 after inoculation. The protocol: The expected efficacies of active compound combinations were determined using Colby's formula (Colby, S. R. “Calculating synergistic and antagonistic responses of herbicide combinations”, Weeds, 15, 20-22, 1967) and compared with the observed efficacies.
E=x+y−x·y/100 • E expected efficacy, expressed in % of the untreated control, when using the mixture of the active compounds A and B at the concentrations a and b • x efficacy, expressed in % of the untreated control, when using the active compound A at the concentration a • y efficacy, expressed in % of the untreated control, when using the active compound B at the concentration b
The active compounds were formulated separately as a stock solution having a concentration of 10 000 ppm in DMSO.
The active compound epoxiconazole was used as a commercial formulation.
Use example No. 1—Activity against the gray mold pathogen Botrytis cinerea in the microtiter test (Botrci)
The stock solution is pipetted onto a microtiter plate (MTP) and diluted to the stated active compound concentration using a malt-based aqueous nutrient medium for fungi. An aqueous spore suspension of Botrytis cinerea was then added. The plates were placed in a water vapor-saturated chamber at temperatures of 18° C. Using an absorption photometer, the MTPs were measured at 405 nm on day 7 after the inoculation. The measured parameters were compared to the growth of the active compound-free control variant and the fungus- and active compound-free blank value to determine the relative growth in % of the pathogens in the individual active compounds.
The visually determined values for the percentage of infected leaf area were initially converted into a mean value and then converted into efficacies in % of the untreated control. An efficacy of 0 means the same degree of infection as in the untreated control, an efficacy of 100 means 0% infection. The expected efficacies for active compound combinations were determined using Colby's formula (Colby, S. R. (Calculating synergistic and antagonistic responses of herbicide combinations”, Weeds, 15, pp. 20-22, 1967) and compared to the observed efficacies.

For `Fc1ccc(C2(Cn3cncn3)OC2c2ccccc2Cl)cc1` (stereo not shown) [Epoxiconazole, epoxiconazole], the “Observed effect (%)” value worked out at 15% (0.016 ppm) and 48% (0.063 ppm).

As to `O=c1c2cc(F)ccc2nc(-n2cncn2)n1-c1ccc(Cl)cc1Cl` [Fluquinconazole, fluquinconazole], the “Observed effect (%)” value (0.004 ppm) stood at 0% and the “Observed effect (%)” value (0.25 ppm) is 0%.
